Key:
[1] = in vivo
Procedure: Ocular dispensing system of elliptical shape for administering a drug to the tissue compartments of the eye over a prolonged period of time and having a length of 4 to 20 millimeters, a width of 1 to 15 millimeters and a thickness of 0.1 to 4 millimeters are prepared by mixing liquid polydimethylsiloxane, chloramphenicol and stannous octate and curing the mixture at room temperature. The resulting matrix is placed in a pre-shaped and sized ethylene-vinyl acetate copolymer tube and the opened end adhesively sealed to provide a solid matrix containing drug. Then, 90% of the exposed surface of the copolymer is surrounded with cross-linked drug impermeable polyamide.

[2] = Drug release rate through system membranes (Example 8); assay type: physicochemical; details: area 1 cm^2, membranes 2 mils thick
Procedure: Following the procedure set forth in Example 1, an ocular drug delivery system shaped like a circle 6 mm by 2.5 mm is prepared according to the described procedure except one of the membrane is formed from commercially available laminate of cellulose acetate and nylon-66 that is substantially impermeable to the passage of hydrocortisone alcohol in the reservoir of the system. The area of the system is 1 cm^2, and the membranes are 2 mils thick. The drug release rate for the ethylene-vinyl acetate copolymer film which is permeable to the steroid is about 40 micrograms per hour, and the release rate for the laminate cellulose acetate nylon is about 1 to 2 micrograms per hour.

[3] = cited from earlier work
[4] = Release of drug from osmotic ocular therapeutic system in simulated ocular aqueous environment (UV, 215 nm); assay type: physicochemical
Procedure: A drug delivery system for the prolonged release of pilocarpine nitrate to the internal part of the eye is prepared and tested in the following manner: first, a reservoir formed of a drug and a polymer in intimate mixture is prepared according to the described procedure. A 7 gram portion of micronized pilocarpine nitrate is admixed with 3 grams of an ethylene-vinyl acetate copolymer having a vinyl acetate content of about 40% and having a melt index of […], as measured by ASTM D 1238-modified test. The copolymer has a tensile strength of about 600-700 psi and an elongation at break of 1400% to 1500%. It is impermeable to pilocarpine nitrate but permeable to water. […] The pilocarpine nitrate micronized particles are on average ~40 microns in diameter. The mixture is heated to 120° C. and cast as a 0.6 mm thick film. Next, a thin, water and drug impermeable thin film of butyl rubber is laminated to one side of the film thereby forming a system with a single drug portal. Finally, a number of 6 mm discs, suitable in size for insertion and retention in the eye, are cut from the 0.6 mm thick film. These discs have a portal with a surface area of […]. Osmotic bursting devices are the invention of Michaels and Gulloid as described in United States Patent Application Ser. No. 578,979 filed on May 19, 1975.
The release of drug from the ocular therapeutic system is determined by placing the systems in a simulated ocular aqueous environment. The outermost drug depots imbibs water through the sole exposed surface, swell, and burst their enclosing membranes, releasing their drug from the reservoir and exposing innermost depots. The amount of drug released in this rate controlled osmotic system is monitored by a UV spectrometer set at 215 nanometer wavelength. A relatively rapid release of pilocarpine nitrate begins to be noticed. The release continues for about 22 hours at a rate gradually decreasing from an initial 400 micrograms per hour to about 250 micrograms per hour after 22 hours. After 22 hours, the release rate falls rapidly.

[5] = rabbit, in vivo
[6] = set-up: species or system New Zealand white rabbits; details: rabbit, in vivo
Procedure: After the ocular systems were in the cul-de-sac 24 hours, they were removed, and a tear sample collected for measuring its pilocarpine content. Then, the systems were returned to the cul-de-sac for one-half hour, the rabbits sacrificed, and an aqueous humor sample immediately withdrawn for measuring the pilocarpine content thereof.
The sutures thus placed, restricted the movement of the ocular systems so that lateral and vertical movement of the ocular systems could not exceed a distance of more than 2 mm. Tear samples were collected and processed in the same way as were tear samples from ocular systems releasing 20 and 40 micrograms per hour.
A second set of ocular systems were used in these experiments and they were manufactured with a size and shape that corresponded to the above ocular systems, except that these latter systems were unireleasing ocular systems. That is, the ocular systems released pilocarpine from a single portal. […] These systems were positioned in the cul-de-sac, with the portal oriented towards the sclera, and tears and aqueous humor samples were taken and analyzed for their pilocarpine content as described above. […]
Selection of an ocular drug receptor site for administering a drug thereto can be easily ascertained by following the above procedures. […] For example, the physiological effect can be determined by measuring ocular pressure and increased vision. […]

[7] = Example 16, single portal osmotic system

O=C(N[C@H](CO)[C@H](O)c1ccc([N+](=O)[O-])cc1)C(Cl)Cl [chloramphenicol]
Discomfort or irritation in the eye [1]: no discomfort or irritation

C[C@]12CCC(=O)C=C1CC[C@@H]1[C@@H]2[C@@H](O)C[C@@]2(C)[C@H]1CC[C@]2(O)C(=O)CO [hydrocortisone alcohol]
Drug release rate for the ethylene-vinyl acetate copolymer film [2]: about 40 micrograms per hour

CC[C@@H]1C(=O)OC[C@@H]1Cc1cncn1C [pilocarpine nitrate]
Solubility in water [3]: about 25%
Duration of release ([4]; Example 16, release rate falls rapidly thereafter): about 22 hours
Release rate after 22 hours [4, 7]: about 250 micrograms per hour
Release rate, initial [4, 7]: 400 micrograms per hour
Aqueous concentrations of osmotic system compared with diffusional systems [5]: substantially similar

CC[C@@H]1C(=O)OC[C@@H]1Cc1cncn1C [pilocarpine]
Absorption and transfer into aqueous humor from bulbar side relative to palpebral side [6]: at least 10 times
Aqueous humor pilocarpine concentration increase per 5 μg/hr increase in rate of release per portal [5]: 0.4 μg/ml per 5 μg/hr
Mean aqueous humor pilocarpine concentration with palpebral delivery relative to bulbar delivery [5]: 11%

Source: patent US4186184A, “Selective administration of drug with ocular therapeutic system” (priority 1979, dated 1980)
